# Measured values: patent US20120309798A1, “Tumour Treatment Agents and Method” (Vivolux AB, priority 2009, published 2012)
# Assays:
# [1] = system: cells from CLL and normal PBMC; assay: Tumor cell specificity: drug effect in CLL cells versus normal PBMC, FMCA; type: cell-based, human; settings: PBMC n=4, CLL n=9; t-test, p<0.05; FIG. 2c
# Source text: (§1) Cell culture. Patient tumor samples (98) and preparations (4) of normal peripheral blood mononuclear cells (PBMC), detailed in Table 1, were used to determine the activity of VLX50 and, for comparison, six other cytotoxic drugs chosen to represent different mechanistic classes.
# (§2) The tumor samples were obtained by bone marrow/peripheral blood sampling, routine surgery or diagnostic biopsy. Leukemic cells and PBMCs were isolated by 1.077 g ml-1 Ficoll-Paque centrifugation (Larsson et al., 1992). Tumor tissue from solid tumor samples was minced into small pieces and tumor cells were isolated by collagenase dispersion followed by Percoll density gradient centrifugation (Csoka et al., 1994). The sampling of primary tumor cells was approved by the local ethics committee at Uppsala University Hospital. Cell viability was determined by trypan blue exclusion test and the proportion of tumor cells in the preparation was judged by inspection of May-Grunvald-Giemsa stained cytospin slides (FIG. 1a). All samples used in this study contained more than 70% tumor cells.
# Fluorometric Microculture Cytotoxicity Assay. The Fluorometric Microculture Cytotoxicity Assay, FMCA, described in detail previously (Lindhagen et al., 2008), is based on measurement of fluorescence generated from hydrolysis of fluorescein diacetate (FDA) to fluorescein by cells with intact plasma membranes. Cells were seeded in the drug-prepared 384-well plates using the pipetting robot Precision 2000 (Bio-Tek Instruments Inc., Winooski, Vt.). The number of cells per well were 2500-5000. Two columns without drugs served as controls and one column with medium only served as blank. The plates were incubated for 72 h and then transferred to an integrated HTS SAIGAN Core System consisting of an ORCA robot (Beckman Coulter) with CO2 incubator (Cytomat 2C, Kendro, Sollentuna, Sweden), dispensor module (Multidrop 384, Titertek, Huntsville, Ala.), washer module (ELx 405, Bio-Tek Instruments Inc), delidding station, plate hotels, barcode reader (Beckman Coulter), liquid handler (Biomek 2000, Beckman Coulter) and a multipurpose reader (FLUOstar Optima, BMG Labtech GmbH, Offenburg, Germany) for automated FMCA. Quality criteria for a successful assay included a mean coefficient of variation of less than 30% in the control and a fluorescence signal in control wells of more than 5 times the blank.
# Dose-response data were analyzed using calculated survival index values and the software program GraphPadPrism4 (GraphPad Software Inc., San Diego, Calif., USA). Data was processed using non-linear regression to a standard sigmoidal dose-response model to obtain IC50-values (inhibitory concentration 50%).
# In FIG. 2a the response rates for VLX50 at 4 μM for the patient samples are listed according to diagnoses. […] Lung cancer, AML and CML had intermediate response rates. The relative effect of VLX50 and six standard cytotoxic drugs, in solid and hematological tumor samples, expressed as the S/H ratio, is shown in FIG. 2b. […] The results for the standard drugs are consistent with their main clinical use.
# [2] = system: solid and hematological patient tumor samples; assay: Relative effect on solid and hematological tumor samples (S/H ratio), FMCA; type: cell-based, human; settings: n=98 patient samples; FIG. 2b
# Source text: as §1
# as §2, with “The sampling of primary tumor cells was approved by the local ethics committee at Uppsala University Hospital.” left out, “All samples used in this study contained more than 70% tumor cells.” left out
# Fluorometric Microculture Cytotoxicity Assay. The Fluorometric Microculture Cytotoxicity Assay, FMCA, described in detail previously (Lindhagen et al., 2008), is based on measurement of fluorescence generated from hydrolysis of fluorescein diacetate (FDA) to fluorescein by cells with intact plasma membranes. […] Quality criteria for a successful assay included a mean coefficient of variation of less than 30% in the control and a fluorescence signal in control wells of more than 5 times the blank. […]
SMILES,Activity in CLL compared with PBMC [1],S/H ratio (ratio between total response rates for solid and hematological samples) [2]
CC[C@]1(O)C[C@H]2CN(CCc3c([nH]c4ccccc34)[C@@](C(=O)OC)(c3cc4c(cc3OC)N(C=O)[C@H]3[C@@](O)(C(=O)OC)[C@H](OC(C)=O)[C@]5(CC)C=CCN6CC[C@]43[C@@H]65)C2)C1 [vincristine],significantly more active in CLL than in PBMC,–
N[C@@H](Cc1ccc(N(CCCl)CCCl)cc1)C(=O)O [melphalan],significantly higher activity in PBMC than in CLL cells,–
Nc1ccn([C@@H]2O[C@H](CO)[C@@H](O)[C@@H]2O)c(=O)n1 [cytarabin],significantly higher activity in PBMC than in CLL cells,–
COc1cc([C@@H]2c3cc4c(cc3[C@@H](O[C@@H]3O[C@@H]5CO[C@@H](C)O[C@H]5[C@H](O)[C@H]3O)[C@H]3COC(=O)[C@H]23)OCO4)cc(OC)c1O [etoposide],No difference,–
"N.N.[Cl][Pt][Cl] [cisplatin, reference compound]",No difference,1.2
COc1cccc2c1C(=O)c1c(O)c3c(c(O)c1C2=O)C[C@@](O)(C(=O)CO)C[C@@H]3O[C@H]1C[C@H](N)[C@H](O)[C@H](C)O1 [doxorubicin],No difference,–
